{
  "source": "PubChem BioAssay AID258",
  "about": "(DTP/NCI, 2004)",
  "system": "CD2F1 mice, L1210 leukemia sc, survival T/C",
  "test": "NCI In Vivo Anticancer Drug Screen. Data for tumor model L1210 Leukemia (subcutaneous) in CD2F1 (CDF1) mice",
  "conditions": "endpoint: median survival time, higher = longer survival",
  "in_short": "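Antitumor activity is scored in tumor-bearing mice by comparing survival or tumor size of treated animals against vehicle-treated controls, reported as T/C.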",
  "note": "Values joined by “and” are separate entries in the source; they are usually repeats but may differ in a detail not shown here. Identical values can stand only once. Toxic doses and inconclusive results are not listed.",
  "data": [
    {"smiles": "CN(N=O)C(=O)N[C@@H](C=O)[C@@H](O)[C@H](O)[C@H](O)CO", "values": [
      {"measurement": "T/C", "setting": "dose: 12.5 mg/kg/injection, schedule: Q01DX009 (ip), vehicle: other", "result": "110 % of control"},
      {"measurement": "T/C", "setting": "dose: 12.5 mg/kg/injection, schedule: Q01DX009 (sc), vehicle: other", "result": "104 % of control and 109 % of control"},
      {"measurement": "T/C", "setting": "dose: 25.0 mg/kg/injection, schedule: Q01DX009 (ip), vehicle: other", "result": "124 % of control"},
      {"measurement": "T/C", "setting": "dose: 25.0 mg/kg/injection, schedule: Q01DX009 (sc), vehicle: other", "result": "106 % of control and 122 % of control"},
      {"measurement": "T/C", "setting": "dose: 50.0 mg/kg/injection, schedule: Q01DX009 (sc), vehicle: other", "result": "109 % of control"},
      {"measurement": "T/C", "setting": "dose: 100.0 mg/kg/injection, schedule: Q01DX009 (ip), vehicle: other", "result": "121 % of control"},
      {"measurement": "T/C", "setting": "dose: 100.0 mg/kg/injection, schedule: Q01DX009 (sc), vehicle: other", "result": "115 % of control"},
      {"measurement": "T/C", "setting": "dose: 200.0 mg/kg/injection, schedule: Q01DX009 (sc), vehicle: other", "result": "111 % of control"}
    ]},
    {"smiles": "O=C1c2ccccc2C(=O)c2c(NCCNCCO)ccc(O)c21", "values": [
      {"measurement": "T/C", "setting": "dose: 5.0 mg/kg/injection, schedule: Q01DX009 (ip), vehicle: suspension in saline", "result": "103 % of control and 104 % of control"},
      {"measurement": "T/C", "setting": "dose: 10.0 mg/kg/injection, schedule: Q01DX009 (ip), vehicle: suspension in saline", "result": "103 % of control and 106 % of control"},
      {"measurement": "T/C", "setting": "dose: 20.0 mg/kg/injection, schedule: Q01DX009 (ip), vehicle: suspension in saline", "result": "104 % of control and 108 % of control"},
      {"measurement": "T/C", "setting": "dose: 40.0 mg/kg/injection, schedule: Q01DX009 (ip), vehicle: suspension in saline", "result": "103 % of control and 106 % of control"},
      {"measurement": "T/C", "setting": "dose: 80.0 mg/kg/injection, schedule: Q01DX009 (ip), vehicle: suspension in saline", "result": "114 % of control and 116 % of control"}
    ]},
    {"smiles": "COc1cccc2c1C(=O)c1c(O)c3c(c(O)c1C2=O)C[C@@](O)(C(=O)CO)C[C@@H]3OC1CC(OC(C)=O)C(OC(C)=O)C(C)O1", "note": "(stereo partly drawn)", "values": [
      {"measurement": "T/C", "setting": "dose: 1.56 mg/kg/injection, schedule: Q01DX009 (ip), vehicle: distilled water + Tween-80", "result": "106 % of control"},
      {"measurement": "T/C", "setting": "dose: 1.57 mg/kg/injection, schedule: Q01DX009 (ip), vehicle: distilled water + Tween-80", "result": "105 % of control"},
      {"measurement": "T/C", "setting": "dose: 3.13 mg/kg/injection, schedule: Q01DX009 (ip), vehicle: distilled water + Tween-80", "result": "105 % of control and 114 % of control"},
      {"measurement": "T/C", "setting": "dose: 12.5 mg/kg/injection, schedule: Q01DX009 (ip), vehicle: distilled water + Tween-80", "result": "182 % of control and 195 % of control"}
    ]},
    {"smiles": "Clc1ccc(CSc2ncnc3nc[nH]c23)cc1", "values": [
      {"measurement": "T/C", "setting": "dose: 38.9 mg/kg/injection, schedule: Q01DX Z (sc), vehicle: methylcellulose (MC)", "result": "100 % of control"},
      {"measurement": "T/C", "setting": "dose: 64.8 mg/kg/injection, schedule: Q01DX Z (sc), vehicle: methylcellulose (MC)", "result": "100 % of control"},
      {"measurement": "T/C", "setting": "dose: 108.0 mg/kg/injection, schedule: Q01DX Z (sc), vehicle: methylcellulose (MC)", "result": "100 % of control"},
      {"measurement": "T/C", "setting": "dose: 180.0 mg/kg/injection, schedule: Q01DX Z (sc), vehicle: methylcellulose (MC)", "result": "100 % of control"},
      {"measurement": "T/C", "setting": "dose: 300.0 mg/kg/injection, schedule: Q01DX Z (sc), vehicle: methylcellulose (MC)", "result": "100 % of control"},
      {"measurement": "T/C", "setting": "dose: 500.0 mg/kg/injection, schedule: Q01DX Z (sc), vehicle: methylcellulose (MC)", "result": "104 % of control"}
    ]},
    {"smiles": "Nc1ccc(C(=O)O)cn1", "values": [
      {"measurement": "T/C", "setting": "dose: 14.0 mg/kg/injection, schedule: Q01DX Z (sc), vehicle: other", "result": "100 % of control"},
      {"measurement": "T/C", "setting": "dose: 23.0 mg/kg/injection, schedule: Q01DX Z (sc), vehicle: other", "result": "100 % of control"},
      {"measurement": "T/C", "setting": "dose: 37.0 mg/kg/injection, schedule: Q01DX Z (sc), vehicle: other", "result": "100 % of control"},
      {"measurement": "T/C", "setting": "dose: 65.0 mg/kg/injection, schedule: Q01DX Z (sc), vehicle: other", "result": "111 % of control"},
      {"measurement": "T/C", "setting": "dose: 108.0 mg/kg/injection, schedule: Q01DX Z (sc), vehicle: other", "result": "100 % of control"},
      {"measurement": "T/C", "setting": "dose: 180.0 mg/kg/injection, schedule: Q01DX Z (sc), vehicle: other", "result": "111 % of control"}
    ]},
    {"smiles": "CS(=O)(=O)OCCCCCCCCCOS(C)(=O)=O", "values": [
      {"measurement": "T/C", "setting": "dose: 47.0 mg/kg/injection, schedule: Q01DX Z (sc), vehicle: carboxymethylcellulose (CMC)", "result": "112 % of control"}
    ]},
    {"smiles": "Cc1ccc(C(=O)Nc2ccc(S(=O)(=O)O)c3cc(S(=O)(=O)O)cc(S(=O)(=O)O)c23)cc1NC(=O)c1cccc(NC(=O)Nc2cccc(C(=O)Nc3cc(C(=O)Nc4ccc(S(=O)(=O)O)c5cc(S(=O)(=O)O)cc(S(=O)(=O)O)c45)ccc3C)c2)c1", "values": [
      {"measurement": "T/C", "setting": "dose: 10.0 mg/kg/injection, schedule: Q07DX003 (iv), vehicle: water", "result": "97 % of control"},
      {"measurement": "T/C", "setting": "dose: 20.0 mg/kg/injection, schedule: Q07DX003 (iv), vehicle: water", "result": "96 % of control"},
      {"measurement": "T/C", "setting": "dose: 40.0 mg/kg/injection, schedule: Q07DX003 (iv), vehicle: water", "result": "100 % of control"}
    ]},
    {"smiles": "COc1cc2c(c(OC)c1OC)-c1ccc(N)c(=O)cc1[C@@H](NC(C)=O)CC2", "values": [
      {"measurement": "T/C", "setting": "dose: 1.0 mg/kg/injection, schedule: Q01DX Z (sc), vehicle: water", "result": "90 % of control"},
      {"measurement": "T/C", "setting": "dose: 2.0 mg/kg/injection, schedule: Q01DX Z (sc), vehicle: water", "result": "109 % of control"},
      {"measurement": "T/C", "setting": "dose: 4.0 mg/kg/injection, schedule: Q01DX Z (sc), vehicle: water", "result": "109 % of control"},
      {"measurement": "T/C", "setting": "dose: 8.0 mg/kg/injection, schedule: Q01DX Z (sc), vehicle: water", "result": "109 % of control"},
      {"measurement": "T/C", "setting": "dose: 16.0 mg/kg/injection, schedule: Q01DX Z (sc), vehicle: water", "result": "109 % of control"}
    ]},
    {"smiles": "O=NNc1cnccn1", "values": [
      {"measurement": "T/C", "setting": "dose: 8.6 mg/kg/injection, schedule: Q01DX009 (ip), vehicle: water", "result": "96 % of control"},
      {"measurement": "T/C", "setting": "dose: 14.4 mg/kg/injection, schedule: Q01DX009 (ip), vehicle: water", "result": "104 % of control"},
      {"measurement": "T/C", "setting": "dose: 24.0 mg/kg/injection, schedule: Q01DX009 (ip), vehicle: water", "result": "100 % of control"},
      {"measurement": "T/C", "setting": "dose: 66.66 mg/kg/injection, schedule: Q01DX009 (ip), vehicle: water", "result": "95 % of control"},
      {"measurement": "T/C", "setting": "dose: 66.67 mg/kg/injection, schedule: Q01DX009 (ip), vehicle: water", "result": "120 % of control"}
    ]},
    {"smiles": "CN(C)CCN1C(=O)c2cccc3cc(N)cc(c23)C1=O", "values": [
      {"measurement": "T/C", "setting": "dose: 5.0 mg/kg/injection, schedule: Q01DX009 (ip), vehicle: acid diluted with saline", "result": "102 % of control and 105 % of control and 118 % of control"},
      {"measurement": "T/C", "setting": "dose: 7.0 mg/kg/injection, schedule: Q01DX009 (ip), vehicle: acid diluted with saline", "result": "103 % of control and 115 % of control and 121 % of control"},
      {"measurement": "T/C", "setting": "dose: 10.0 mg/kg/injection, schedule: Q01DX009 (ip), vehicle: acid diluted with saline", "result": "112 % of control"},
      {"measurement": "T/C", "setting": "dose: 16.0 mg/kg/injection, schedule: Q01DX009 (ip), vehicle: acid diluted with saline", "result": "150 % of control and 173 % of control"},
      {"measurement": "T/C", "setting": "dose: 24.0 mg/kg/injection, schedule: Q01DX009 (ip), vehicle: acid diluted with saline", "result": "116 % of control"}
    ]},
    {"smiles": "N#CC(c1ccccc1)c1cccc2ccccc12", "note": "(stereo not drawn)", "values": [
      {"measurement": "T/C", "setting": "dose: 23.0 mg/kg/injection, schedule: Q01DX Z (sc), vehicle: methylcellulose (MC)", "result": "109 % of control"},
      {"measurement": "T/C", "setting": "dose: 39.0 mg/kg/injection, schedule: Q01DX Z (sc), vehicle: methylcellulose (MC)", "result": "119 % of control"},
      {"measurement": "T/C", "setting": "dose: 65.0 mg/kg/injection, schedule: Q01DX Z (sc), vehicle: methylcellulose (MC)", "result": "152 % of control"}
    ]},
    {"smiles": "C[C@H](N)C(=O)N[C@@H]1[C@H]2C(=C(O)C[C@@H](O)[C@@H]2O)C(=O)O[C@]1(C)C(Cl)Cl", "values": [
      {"measurement": "T/C", "setting": "dose: 0.37 mg/kg/injection, schedule: Q01DX009 (ip), vehicle: water", "result": "111 % of control"},
      {"measurement": "T/C", "setting": "dose: 0.62 mg/kg/injection, schedule: Q01DX005 (ip), vehicle: water", "result": "112 % of control"},
      {"measurement": "T/C", "setting": "dose: 0.62 mg/kg/injection, schedule: Q01DX005 (iv), vehicle: water", "result": "113 % of control"},
      {"measurement": "T/C", "setting": "dose: 0.75 mg/kg/injection, schedule: Q01DX009 (ip), vehicle: water", "result": "120 % of control"},
      {"measurement": "T/C", "setting": "dose: 0.75 mg/kg/injection, schedule: Q01DX009 (sc), vehicle: water", "result": "116 % of control"},
      {"measurement": "T/C", "setting": "dose: 1.25 mg/kg/injection, schedule: Q01DX005 (ip), vehicle: water", "result": "124 % of control"},
      {"measurement": "T/C", "setting": "dose: 1.5 mg/kg/injection, schedule: Q01DX009 (oral), vehicle: water", "result": "108 % of control"},
      {"measurement": "T/C", "setting": "dose: 3.0 mg/kg/injection, schedule: Q01DX009 (ip), vehicle: water", "result": "160 % of control"},
      {"measurement": "T/C", "setting": "dose: 3.0 mg/kg/injection, schedule: Q01DX009 (oral), vehicle: water", "result": "109 % of control"},
      {"measurement": "T/C", "setting": "dose: 3.0 mg/kg/injection, schedule: Q01DX009 (sc), vehicle: water", "result": "160 % of control"},
      {"measurement": "T/C", "setting": "dose: 6.0 mg/kg/injection, schedule: Q01DX009 (oral), vehicle: water", "result": "112 % of control"},
      {"measurement": "T/C", "setting": "dose: 12.0 mg/kg/injection, schedule: Q01DX009 (oral), vehicle: water", "result": "120 % of control"}
    ]}
  ]
}
